Experimental findings from ChEMBL document CHEMBL1130809, “Anti-inflammatory/antiarthritic ketonic bisphosphonic acid esters” (1998) are described below.

Holding throughout (assay type): functional
What all share (settings): route oral

In assay [1] the test system is Mus musculus. Kind of assay: Inhibition of delayed type hypersensitivity granuloma in mice following 10 mg/kg p.o. administration.
Assay [2] concerns Mus musculus. Kind of assay: Inhibition of antigen-induced arthritis in mice following 10 mg/kg p.o. administration.
The test system of assay [3] is Mus musculus. Kind of assay: Compound was tested for anti-inflammatory activity in delayed type hypersensitivity granuloma upon 100 mg/kg peroral administration.
In assay [4] the test system is Mus musculus. The assay is described as follows: Compound was tested for antiarthritic activity in murine model of antigen-induced arthritis upon 100 mg/kg peroral administration.
The subject of assay [5] is Mus musculus. Kind of assay: Compound was tested for antiarthritic activity in murine model of antigen-induced arthritis. upon 10 mg/kg peroral administration.
For assay [6], the system named is Mus musculus. Kind of assay: Compound was tested for antiarthritic activity in murine model of antigen-induced arthritis upon 10 mg/kg peroral administration.

Broadly, the inhibition in vivo is the relative decrease from the control value, in per cent. A high value points to a response far below the control.

`CCOP(=O)(OCC)C(CCC(=O)c1cccc(I)c1)P(=O)(OCC)OCC` showed an inhibition in vivo at 10 mg/kg with Mus musculus [1] of 5%.
On to `CC1(C)COP(=O)(C(CCC(=O)c2ccoc2)P2(=O)OCC(C)(C)CO2)OC1`, for which the inhibition in vivo at 10 mg/kg with Mus musculus [2] was 16%; with Mus musculus [1], 45%.
Regarding `CCOP(=O)(OCC)C(CCC(=O)c1cccc(Cl)c1)P(=O)(OCC)OCC`, the inhibition in vivo at 10 mg/kg came to 26% with Mus musculus [2] and 10% with Mus musculus [1].
As to `O=P(O)(O)C(Cl)(Cl)P(=O)(O)O` [CLODRONIC ACID], in the assay with Mus musculus [3], the ED30 turned out to be 30 mg/kg and the inhibition in vivo at 100 mg/kg worked out at 48%. Besides, in the assay with Mus musculus [4], the ED30 turned out to be 50 mg/kg and 100 mg/kg produced 42% inhibition in vivo.
For the compound `CCOC(=O)Nc1ccc(C(=O)CCC(P(=O)(OCC)OCC)P(=O)(OCC)OCC)cc1`, the inhibition in vivo at 10 mg/kg in the assay on Mus musculus [2] was 18%; in the assay on Mus musculus [1], 43%.
Turning to `CCOP(=O)(OCC)C(CCC(=O)c1cccnc1)P(=O)(OCC)OCC`, the figures for the inhibition in vivo at 10 mg/kg with Mus musculus [2] and in the assay on Mus musculus [1] were 61% and 51%, respectively.
For `CCOP(=O)(OCC)C(CCC(=O)c1cccc(NS(C)(=O)=O)c1)P(=O)(OCC)OCC`, in that order: 33% and 37%.
Regarding `CC1(C)COP(=O)(C(CCC(=O)c2cccc(F)c2)P2(=O)OCC(C)(C)CO2)OC1`, the inhibition in vivo at 10 mg/kg in the assay with Mus musculus [2] was 48%; with Mus musculus [1], below 57%. In the assay on Mus musculus [5], the ED30 is 0.01 mg/kg.
`CCOP(=O)(OCC)C(CCC(=O)c1ccc(NC(C)=O)cc1)P(=O)(OCC)OCC`: the inhibition in vivo at 10 mg/kg in the assay with Mus musculus [2] turned out to be 10%; in the assay on Mus musculus [1], 75%.
The like results for `CCOP(=O)(OCC)C(CCC(=O)c1ccco1)P(=O)(OCC)OCC` were, in that order, 11% and 23%.
For `CC1(C)COP(=O)(C(CCC(=O)c2ccccc2)P2(=O)OCC(C)(C)CO2)OC1`, in the assay on Mus musculus [1], 10 mg/kg produced 36% inhibition in vivo.
For `CCOP(=O)(OCC)C(CCC(=O)c1ccccc1)P(=O)(OCC)OCC`, the inhibition in vivo at 10 mg/kg worked out at 10% in the assay with Mus musculus [2] and 51% in the assay on Mus musculus [1].
For `CCOP(=O)(OCC)C(CC(=O)c1ccccc1)P(=O)(OCC)OCC`, in that order: 11% and 7%.
For `CCOP(=O)(OCC)C(CCCc1ccccc1)P(=O)(OCC)OCC`, the values for the inhibition in vivo at 10 mg/kg in the assay with Mus musculus [2] and with Mus musculus [1] were 11% and 44%, respectively.
Regarding `CC1(C)COP(=O)(C(CCC(=O)c2cccnc2)P2(=O)OCC(C)(C)CO2)OC1`, the inhibition in vivo at 10 mg/kg in the assay on Mus musculus [2] amounted to 28%; in the assay with Mus musculus [1], 38%. The ED30 in the assay on Mus musculus [5] was 0.4 mg/kg.
As for `CCOP(=O)(OCC)C(CCC(=O)c1cccc(Br)c1)P(=O)(OCC)OCC`, the inhibition in vivo at 10 mg/kg with Mus musculus [2] was found to be 22%; with Mus musculus [1], 59%.
The like results for `CCOP(=O)(OCC)C(CCC(=O)c1ccccn1)P(=O)(OCC)OCC` were, in that order, 47% and 43%.
For the compound `CCOP(=O)(OCC)C(CCC(O)c1ccccc1)P(=O)(OCC)OCC` (stereo not given), in the assay with Mus musculus [1], the inhibition in vivo at 10 mg/kg turned out to be 39%.
On to `CCOP(=O)(OCC)C(CCC(=O)c1ccc(NC(=O)c2ccccc2)cc1)P(=O)(OCC)OCC`, for which the inhibition in vivo at 10 mg/kg turned out to be 4% in the assay on Mus musculus [2] and 63% in the assay on Mus musculus [1].
Take `CCOP(=O)(OCC)C(CC(C(=O)c1ccccc1)c1ccccc1)P(=O)(OCC)OCC` (stereo not given): the inhibition in vivo at 10 mg/kg with Mus musculus [1] stood at 65%; with Mus musculus [6], 54%. This compound had an ED30 in the assay with Mus musculus [6] of 50 mg/kg.
Consider `CCOP(=O)(OCC)C(CCC(=O)c1cccc(F)c1)P(=O)(OCC)OCC`, for which the inhibition in vivo at 10 mg/kg is 40% with Mus musculus [2] and 44% in the assay on Mus musculus [1]. The compound further came in with an ED30 in the assay on Mus musculus [5] of 0.1 mg/kg.
